4 molecules from BindingDB's records for doi:10.1016/j.bmc.2010.01.055 (Chinese Academy of Sciences, 2010) can be followed below.

The target of the experiment is Receptor-type tyrosine-protein phosphatase alpha (PTPRA) (Homo sapiens) (UniProt P18433). Briefly: Inhibition of PTPalpha expressed in Escherichia coli BL21 (DE3) after 10 mins by spectrophotometry.

A value given as a limit tells only on which side of the number the result lay.

Receptor-type tyrosine-protein phosphatase alpha (PTPRA) (Homo sapiens), sequence (P18433 whole entry, looked up): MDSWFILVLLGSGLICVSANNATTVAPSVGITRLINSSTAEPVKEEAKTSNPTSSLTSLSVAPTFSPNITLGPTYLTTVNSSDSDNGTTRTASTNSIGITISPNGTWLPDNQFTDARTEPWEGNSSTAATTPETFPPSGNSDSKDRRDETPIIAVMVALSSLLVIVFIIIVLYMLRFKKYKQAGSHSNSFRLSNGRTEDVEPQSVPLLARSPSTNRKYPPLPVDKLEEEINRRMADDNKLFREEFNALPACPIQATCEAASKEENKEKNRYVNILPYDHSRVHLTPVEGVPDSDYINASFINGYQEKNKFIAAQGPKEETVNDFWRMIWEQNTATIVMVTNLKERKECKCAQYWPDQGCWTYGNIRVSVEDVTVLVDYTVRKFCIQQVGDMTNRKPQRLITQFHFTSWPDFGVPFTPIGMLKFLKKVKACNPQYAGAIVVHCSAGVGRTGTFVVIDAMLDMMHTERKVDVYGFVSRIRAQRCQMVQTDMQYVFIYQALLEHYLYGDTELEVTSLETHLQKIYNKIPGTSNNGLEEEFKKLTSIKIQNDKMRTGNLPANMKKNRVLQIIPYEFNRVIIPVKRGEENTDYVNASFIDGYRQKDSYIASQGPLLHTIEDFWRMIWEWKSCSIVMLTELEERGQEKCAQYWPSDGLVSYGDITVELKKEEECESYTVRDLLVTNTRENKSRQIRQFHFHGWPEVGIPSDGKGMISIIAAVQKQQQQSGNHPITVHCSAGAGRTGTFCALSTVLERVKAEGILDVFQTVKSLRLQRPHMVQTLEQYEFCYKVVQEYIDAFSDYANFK

As a reminder, the IC50 is the concentration that inhibits the measured activity by half. On to `CC(C)OC(=O)c1c(-c2ccc(-c3ccccc3)cc2)csc1NC(=O)C1C2C=CC(C2)C1C(=O)O` (centres undefined) [4-Biphenyl-4-yl-2-[(3-carboxy-bicyclo[2.2.1]hept-5-ene-2-carbonyl)-amino]-thiophene-3-carboxylic acid isopropylester], for which the half-inhibitory concentration (IC50) was > 100 µM. Next, `CCOC(=O)c1c(-c2ccc(-c3ccc(F)c(Cl)c3)cc2)csc1NC(=O)c1ccccc1C(=O)O` [2-(2-Carboxy-benzoylamino)-4-(30-chloro-40-fluorobiphenyl-4-yl)-thiophene-3-carboxylic acid ethyl ester]: 23.1 µM; `CC(C)OC(=O)c1c(-c2ccc(-c3ccc(Cl)cc3)cc2)csc1NC(=O)C1C2C=CC(C2)C1C(=O)O` (centres undefined) [2-[(3-Carboxy-bicyclo[2.2.1]hept-5-ene-2-carbonyl)-amino]-4-(4'-chloro-biphenyl-4-yl)-thiophene-3-carboxylicacid isopropyl ester]: > 100 µM.

In the case of `CCc1oc2cc(S(=O)(=O)Nc3nccs3)ccc2c1C(=O)c1cc(Br)c(O)c(Br)c1` [3-(3,5-dibromo-4-hydroxybenzoyl)-2-ethyl-N-(thiazol-2-yl)benzofuran-6-sulfonamide], the IC50 is > 100 µM.
